Assay results published in the CheMixHub ionic liquid set.

Assay: xn = mol fraction of the nth substance listed

CCCC(=O)O + CC(CC(C)(C)C)CP(=O)([O-])CC(C)CC(C)(C)C.CCCCCCCCCCCCCC[P+](CCCCCC)(CCCCCC)CCCCCC
Settings | viscosity [mPa·s]
298 K, 100 kPa, x2 = 0.9022 | 950

CCCC(=O)O + CC(CC(C)(C)C)CP(=O)([O-])CC(C)CC(C)(C)C.CCCCCCCCCCCCCC[P+](CCCCCC)(CCCCCC)CCCCCC + O
100 kPa
Settings | viscosity [mPa·s]
298 K, x2 = 0.09014, x1 = 0.601 | 53
298 K, x2 = 0.09759, x1 = 0.6041 | 54
298 K, x2 = 0.1129, x1 = 0.5867 | 83
310 K, x2 = 0.08641, x1 = 0.594 | 30
310 K, x2 = 0.1138, x1 = 0.593 | 47
310 K, x2 = 0.1346, x1 = 0.5734 | 58
310 K, x2 = 0.1366, x1 = 0.07313 | 82
310 K, x2 = 0.1673, x1 = 0.1732 | 84
310 K, x2 = 0.1882, x1 = 0.4901 | 87
310 K, x2 = 0.1908, x1 = 0.2923 | 90
310 K, x2 = 0.1962, x1 = 0.4196 | 91
318 K, x2 = 0.08808, x1 = 0.5881 | 24
318 K, x2 = 0.1141, x1 = 0.5826 | 35
318 K, x2 = 0.1336, x1 = 0.5507 | 44

C[N+](C)(C)CCO.O=S(=O)([N-]S(=O)(=O)C(F)(F)F)C(F)(F)F + CC(O)CO
101 kPa
Settings | viscosity [mPa·s]
313.15 K, x2 = 0 | 56.4
313.15 K, x2 = 0.4786 | 28.6
318.15 K, x2 = 0.4786 | 23.6
328.15 K, x2 = 0.5867 | 15.4
333.15 K, x2 = 0 | 28.6
338.15 K, x2 = 0 | 24.6
343.15 K, x2 = 0.2189 | 14.68
343.15 K, x2 = 0.3834 | 12.15
343.15 K, x2 = 0.8744 | 6.61
348.15 K, x2 = 0 | 19.1

CCCCCCCCCCCCCC[P+](CCCC)(CCCC)CCCC.CCCCCCCCCCCCc1ccccc1S(=O)(=O)[O-] + CCCCCCCCCCCC
101 kPa
Settings | viscosity [mPa·s]
298.15 K, x1 = 0.4402 | 456
303.15 K, x1 = 0.4402 | 325
308.15 K, x1 = 0.4844 | 319
313.15 K, x1 = 0.354 | 127
313.15 K, x1 = 0.4402 | 180
313.15 K, x1 = 0.4844 | 236
318.15 K, x1 = 0.6789 | 596
328.15 K, x1 = 0.354 | 59.1
328.15 K, x1 = 0.6789 | 316
338.15 K, x1 = 0.354 | 39.1
338.15 K, x1 = 0.4844 | 65.1
343.15 K, x1 = 0.6789 | 133
353.15 K, x1 = 0.6789 | 86.1

CCCCCCCCCCCCOS(=O)(=O)[O-].[Na+] + CCCCCCCCCCCCCCCC[N+](C)(C)C.[Br-] + O
298.15 K, 101 kPa, frequency 0.001 MHz
Settings | electrical conductivity [S/m]
x1 = 3e-08, x2 = 0 | 0.000305
x1 = 1.029e-05, x2 = 0 | 0.00434
x1 = 2.57e-05, x2 = 0 | 0.0104
x1 = 3.699e-05, x2 = 0 | 0.0155
x1 = 5.034e-05, x2 = 0 | 0.0213
x1 = 6.37e-05, x2 = 0 | 0.0264
x1 = 7.295e-05, x2 = 0 | 0.0301
x1 = 8.321e-05, x2 = 0 | 0.0349
x1 = 9.348e-05, x2 = 0 | 0.0392
x1 = 0.0001038, x2 = 0 | 0.0422
x1 = 0.000113, x2 = 0 | 0.0461
x1 = 0.0001212, x2 = 0 | 0.051
x1 = 0.0001315, x2 = 0 | 0.054
x1 = 0.0001418, x2 = 0 | 0.0567
x1 = 0.00015, x2 = 0 | 0.0607
x1 = 0.0001582, x2 = 0 | 0.0631
x1 = 0.0001665, x2 = 0 | 0.0649
x1 = 0.0001737, x2 = 0 | 0.0661
x1 = 0.000183, x2 = 0 | 0.0673
x1 = 0.0001944, x2 = 0 | 0.0683
x1 = 0.0002036, x2 = 0 | 0.0701
x1 = 0.000214, x2 = 0 | 0.0713
x1 = 0.0002222, x2 = 0 | 0.0737
x1 = 0.0002315, x2 = 0 | 0.075
x1 = 0.0002408, x2 = 0 | 0.0771
x1 = 0.0002521, x2 = 0 | 0.0792
x1 = 0.0002625, x2 = 0 | 0.0801
x1 = 0.0002738, x2 = 0 | 0.0823
x1 = 0.0002862, x2 = 0 | 0.0841

CCCCCCCCCCCC[N+](C)(C)C.[Br-] + CCCCCCCCCCCCCCCC[n+]1ccn(C)c1.[Cl-] + O
100 kPa, frequency 0.002 MHz
Settings | electrical conductivity [S/m]
303.15 K, x2 = 0, x1 = 0.0001836 | 0.105
313.15 K, x2 = 0, x1 = 0.0003475 | 0.207
323.15 K, x2 = 0, x1 = 0.0001544 | 0.129

CCCCCCCCCC(=O)O + CCCCCCCCCCCCCC[P+](CCCCCC)(CCCCCC)CCCCCC.[Cl-]
100 kPa, x2 = 0.3333
Settings | viscosity [mPa·s]
293 K | 350
298 K | 260
318 K | 94
328 K | 63
333 K | 53
